Patent US20190223483A1, “SENSORY MODIFIER COMPOUNDS” (CARGILL, INCORPORATED, priority 2017, published 2019)
“And” between values parts separate entries of the source, which are not always exact repeats. Identical values can stand only once.

Assays:
[1] = Roundtable assessment of sweetness linger (scale 0 to 6); format: in vivo; set-up: key: 0 = none; 1 = trace/faint; 2 = slight; 3 = moderate; 4 = definite; 5 = strong; 6 = extreme
Experimental: In some aspects, the amount of sensory modifier compound effective to […] can be determined by panel testing with trained panelists. For example, sweetness linger can be determined by the following test: For other sweetness attributes, the solutions were tested by a panel of at least four individuals that are highly-trained in tasting steviol glycoside solutions. The highly-trained panelists used a roundtable methodology to assess each sweetness attribute. To test each solution, the highly-trained panelists dispensed approximately 2 mL of each solution into their own mouths by transfer pipet, dispersed the solution by moving their tongues, and recorded a value for the particular sweetness attribute being tested. Between tasting solutions, the panelists were able to cleanse their palates with water. For each sweetness attribute, the panelist agreed on a descriptive scale with relative intensities assigned for each sweetness attribute and then recorded the values for each sweetness attribute against this. For example, this roundtable assessment of sweetness linger assigned a scale of 0 to 6 with a score of 0 indicating no sweetness linger and a score of 6 indicating extreme sweetness linger. Roundtable assessment of sweetness linger assigned a scale of 0 to 6 with a score of 0 indicating no sweetness linger and a score of 6 indicating extreme sweetness linger (0=none, 1=trace, 2=slight, 3=moderate, 4=definite, 5=strong, 6=extreme). Roundtable assessment of rounded assigned a scale of 0 to 3 with a score of 0 indicating spikey and a score of 3 indicating desirable rounded (0=none, 1=mostly spikey, some rounded, 2=mostly rounded, some spikey, 3=rounded). Roundtable assessment of mouthfeel assigned a scale of 0 to 2 with a score of 0 indicating water and a score of 2 indicating syrupy (0=water, 1=sucrosey, 2=syrupy). Roundtable assessment of bitterness assigned a scale of 0 to 6 with a score of 0 indicating no bitterness and a score of 6 indicating extreme sweetness linger (0=none, 1=trace, 2=slight, 3=moderate, 4=definite, 5=strong, 6=extreme). Roundtable assessment of off tastes assigned a scale of 0 to 6 with a score of 0 indicating no bitterness and a score of 6 indicating extreme off tastes (0=none, 1=trace, 2=slight, 3=moderate, 4=definite, 5=strong, 6=extreme). […] Roundtable assessment of botanical notes assigned a scale of 0 to 5 with a score of 0 indicating no botanical notes and a score of 5 indicating strong (0=none, 1=trace, 2=slight, 3=moderate, 4=definite, 5=strong). Exemplary tests are recorded below in Example 1.
For other sweetness attributes, the solutions were tested by a panel of at least four individuals that are highly-trained in tasting steviol glycoside solutions. The highly-trained panelists used a roundtable methodology to assess each sweetness attribute. To test each solution, the highly-trained panelists dispensed approximately 2 mL of each solution into their own mouths by transfer pipet, dispersed the solution by moving their tongues, and recorded a value for the particular sweetness attribute being tested. Between tasting solutions, the panelists were able to cleanse their palates with water. For each sweetness attribute, the panelist agreed on a descriptive scale with relative intensities assigned for each sweetness attribute and then recorded the values for each sweetness attribute against this. For example, this roundtable assessment of sweetness linger assigned a scale of 0 to 6 with a score of 0 indicating no sweetness linger and a score of 6 indicating extreme sweetness linger. Roundtable assessment of sweetness linger assigned a scale of 0 to 6 with a score of 0 indicating no sweetness linger and a score of 6 indicating extreme sweetness linger (0=none, 1=trace, 2=slight, 3=moderate, 4=definite, 5=strong, 6=extreme). […]

[2] = Roundtable assessment of spikey/rounded sweetness quality (scale 0 to 3); format: in vivo; set-up: key: 0=none; 1=mostly spikey, some rounded; 2=mostly rounded, some spikey; 3=rounded
Experimental: For other sweetness attributes, the solutions were tested by a panel of at least four individuals that are highly-trained in tasting steviol glycoside solutions. The highly-trained panelists used a roundtable methodology to assess each sweetness attribute. To test each solution, the highly-trained panelists dispensed approximately 2 mL of each solution into their own mouths by transfer pipet, dispersed the solution by moving their tongues, and recorded a value for the particular sweetness attribute being tested. Between tasting solutions, the panelists were able to cleanse their palates with water. For each sweetness attribute, the panelist agreed on a descriptive scale with relative intensities assigned for each sweetness attribute and then recorded the values for each sweetness attribute against this. For example, this roundtable assessment of sweetness linger assigned a scale of 0 to 6 with a score of 0 indicating no sweetness linger and a score of 6 indicating extreme sweetness linger. Roundtable assessment of sweetness linger assigned a scale of 0 to 6 with a score of 0 indicating no sweetness linger and a score of 6 indicating extreme sweetness linger (0=none, 1=trace, 2=slight, 3=moderate, 4=definite, 5=strong, 6=extreme). Roundtable assessment of rounded assigned a scale of 0 to 3 with a score of 0 indicating spikey and a score of 3 indicating desirable rounded (0=none, 1=mostly spikey, some rounded, 2=mostly rounded, some spikey, 3=rounded). Roundtable assessment of mouthfeel assigned a scale of 0 to 2 with a score of 0 indicating water and a score of 2 indicating syrupy (0=water, 1=sucrosey, 2=syrupy). Roundtable assessment of bitterness assigned a scale of 0 to 6 with a score of 0 indicating no bitterness and a score of 6 indicating extreme sweetness linger (0=none, 1=trace, 2=slight, 3=moderate, 4=definite, 5=strong, 6=extreme). Roundtable assessment of off tastes assigned a scale of 0 to 6 with a score of 0 indicating no bitterness and a score of 6 indicating extreme off tastes (0=none, 1=trace, 2=slight, 3=moderate, 4=definite, 5=strong, 6=extreme).
A series of assays were carried out to characterize a sweetness quality of a not preferred spikey quality (a zero value) to a more desirable rounded quality (a 3 value) of steviol glycoside compositions with sensory modifier compound using the roundtable methodology described in Example 1. Rounded quality has the sensory experience of being more like sucrose. […] Solutions of steviol glycosides and sensory modifier compound were prepared at increasing ratios of sensory modifier to steviol glycoside by weight. The steviol glycosides were RebA (4 glycoside groups), RebD (5 glycoside groups), RebM (6 glycoside groups), and OPS1-5(7 glycoside groups) and the sensory modifier compound was monocaffeoylquinic and dicaffeoylquinic acids prepared from yerba mate. […] The solutions were tested for spikey/rounded.

[3] = steviol glycoside 700 ppm + yerba mate mono/dicaffeoylquinic acids 630 ppm
[4] = steviol glycoside 700 ppm + yerba mate mono/dicaffeoylquinic acids 946 ppm
[5] = steviol glycoside 700 ppm + yerba mate mono/dicaffeoylquinic acids […]
[6] = steviol glycoside 700 ppm, sensory modifier 0 ppm
[7] = steviol glycoside 700 ppm + yerba mate mono/dicaffeoylquinic acids 270 ppm
[8] = steviol glycoside 700 ppm + yerba mate mono/dicaffeoylquinic acids 540 ppm
[9] = steviol glycoside 700 ppm + yerba mate mono/dicaffeoylquinic acids 810 ppm
[10] = RebM 700 ppm + rosmarinic acid 195 ppm
[11] = RebM 700 ppm + rosmarinic acid 391 ppm
[12] = RebM 700 ppm + rosmarinic acid 586 ppm
[13] = steviol glycoside 700 ppm + yerba mate mono/dicaffeoylquinic acids 236 ppm
[14] = steviol glycoside 700 ppm + yerba mate mono/dicaffeoylquinic acids 300 ppm
[15] = steviol glycoside 700 ppm + yerba mate mono/dicaffeoylquinic acids 400 ppm
[16] = steviol glycoside 700 ppm + yerba mate mono/dicaffeoylquinic acids 472 ppm
[17] = steviol glycoside 700 ppm + yerba mate mono/dicaffeoylquinic acids 500 ppm
[18] = steviol glycoside 700 ppm + yerba mate mono/dicaffeoylquinic acids 600 ppm
[19] = steviol glycoside 700 ppm + yerba mate mono/dicaffeoylquinic acids 700 ppm
[20] = steviol glycoside 700 ppm + yerba mate mono/dicaffeoylquinic acids 708 ppm
[21] = steviol glycoside 700 ppm + yerba mate mono/dicaffeoylquinic acids 800 ppm

## C=C1C[C@@]23CC[C@H]4[C@@](C)(CCC[C@@]4(C)C(=O)O[C@@H]4O[C@H](CO)[C@@H](O)[C@H](O)[C@H]4O)[C@@H]2CC[C@]1(O[C@@H]1O[C@H](CO)[C@@H](O)[C@H](O[C@@H]2O[C@H](CO)[C@@H](O)[C@H](O)[C@H]2O)[C@H]1O[C@@H]1O[C@H](CO)[C@@H](O)[C@H](O)[C@H]1O)C3 [RebA, Rebaudioside A]
[1]; [3]
  Sweetness linger: Not observed
[1]; [4]
  Sweetness linger: Not observed
[1]; [5]
  Sweetness linger: Not observed
[1]; [6]
  Sweetness linger: Not observed
[2]; [3]
  Spikey/rounded (spikey = 0) (rounded = 3): Not observed
[2]; [4]
  Spikey/rounded (spikey = 0) (rounded = 3): Not observed
[2]; [5]
  Spikey/rounded (spikey = 0) (rounded = 3): Not observed
[2]; [6]
  Spikey/rounded (spikey = 0) (rounded = 3): 0

## C=C1C[C@@]23CC[C@H]4[C@@](C)(CCC[C@@]4(C)C(=O)O[C@@H]4O[C@H](CO)[C@@H](O)[C@H](O)[C@H]4O[C@@H]4O[C@H](CO)[C@@H](O)[C@H](O)[C@H]4O)[C@@H]2CC[C@]1(O[C@@H]1O[C@H](CO)[C@@H](O)[C@H](O[C@@H]2O[C@H](CO)[C@@H](O)[C@H](O)[C@H]2O)[C@H]1O[C@@H]1O[C@H](CO)[C@@H](O)[C@H](O)[C@H]1O)C3 [RebD, Rebaudioside D]
[1]; [7]
  Sweetness linger: 3
[1]; [8]
  Sweetness linger: 2
[1]; [9]
  Sweetness linger: 1
[1]; steviol glycoside 700 ppm, about 200 ppm sensory modifier
  Sweetness linger: reduced to commercially palatable levels
[1]; [6]
  Sweetness linger: 3
[2]; [7]
  Spikey/rounded (spikey = 0) (rounded = 3): 1
[2]; [8]
  Spikey/rounded (spikey = 0) (rounded = 3): 3
[2]; [9]
  Spikey/rounded (spikey = 0) (rounded = 3): 3
[2]; [6]
  Spikey/rounded (spikey = 0) (rounded = 3): 2

## C=C1C[C@@]23CC[C@H]4[C@@](C)(CCC[C@@]4(C)C(=O)O[C@@H]4O[C@H](CO)[C@@H](O)[C@H](O[C@@H]5O[C@H](CO)[C@@H](O)[C@H](O)[C@H]5O)[C@H]4O[C@@H]4O[C@H](CO)[C@@H](O)[C@H](O)[C@H]4O)[C@@H]2CC[C@]1(O[C@@H]1O[C@H](CO)[C@@H](O)[C@H](O[C@@H]2O[C@H](CO)[C@@H](O)[C@H](O)[C@H]2O)[C@H]1O[C@@H]1O[C@H](CO)[C@@H](O)[C@H](O)[C@H]1O)C3 [RebM, Rebaudioside M]
[1]; 1:1 molar ratio with tartaric acid backbone modifier
  Sweetness linger: no perceptible linger
[1]; 1:2 molar ratio with quinic acid backbone modifier
  Sweetness linger: no perceptible linger
[1]; RebM 700 ppm + cichoric acid (tartaric backbone) 514 ppm
  Sweetness linger: 0
[1]; RebM 700 ppm + cichoric acid (tartaric backbone) 772 ppm
  Sweetness linger: 0
[1]; RebM 700 ppm + cichoric acid (tartaric backbone) […]
  Sweetness linger: 0
[1]; [10]
  Sweetness linger: 6
[1]; [11]
  Sweetness linger: 3
[1]; [12]
  Sweetness linger: 2
[1]; RebM 700 ppm, above about 300 ppm quinic backbone modifier
  Sweetness linger: not perceptible
[1]; RebM 700 ppm, at or before about 200 ppm quinic backbone modifier
  Sweetness linger: slight
[1]; [13]
  Sweetness linger: 2
[1]; [14]
  Sweetness linger: 2
[1]; [15]
  Sweetness linger: 0
[1]; [16]
  Sweetness linger: 0
[1]; [17]
  Sweetness linger: 0
[1]; [18]
  Sweetness linger: 0
[1]; [19]
  Sweetness linger: 0 and 2
[1]; [20]
  Sweetness linger: 0
[1]; [21]
  Sweetness linger: 0
[1]; [6]
  Sweetness linger: 6
[2]; RebM 100 ppm + yerba mate mono/dicaffeoylquinic acids 100 ppm (1:1)
  Spikey/rounded (spikey = 0) (rounded = 3): 0
[2]; RebM 200 ppm + yerba mate mono/dicaffeoylquinic acids 200 ppm (1:1)
  Spikey/rounded (spikey = 0) (rounded = 3): 0
[2]; RebM 300 ppm + yerba mate mono/dicaffeoylquinic acids 300 ppm (1:1)
  Spikey/rounded (spikey = 0) (rounded = 3): 1
[2]; RebM 400 ppm + yerba mate mono/dicaffeoylquinic acids 400 ppm (1:1)
  Spikey/rounded (spikey = 0) (rounded = 3): 1
[2]; RebM 500 ppm + yerba mate mono/dicaffeoylquinic acids 500 ppm (1:1)
  Spikey/rounded (spikey = 0) (rounded = 3): 1
[2]; RebM 600 ppm + yerba mate mono/dicaffeoylquinic acids 600 ppm (1:1)
  Spikey/rounded (spikey = 0) (rounded = 3): 1
[2]; [10]
  Spikey/rounded (spikey = 0) (rounded = 3): 0
[2]; [11]
  Spikey/rounded (spikey = 0) (rounded = 3): 2
[2]; [12]
  Spikey/rounded (spikey = 0) (rounded = 3): 3
[2]; RebM 700 ppm + yerba mate mono/dicaffeoylquinic acids 700 ppm (1:1)
  Spikey/rounded (spikey = 0) (rounded = 3): 2
[2]; RebM 700 ppm, above 200 ppm sensory modifier
  rounded quality: 2
[2]; RebM 800 ppm + yerba mate mono/dicaffeoylquinic acids 800 ppm (1:1)
  Spikey/rounded (spikey = 0) (rounded = 3): 2
[2]; RebM 900 ppm + yerba mate mono/dicaffeoylquinic acids 900 ppm (1:1)
  Spikey/rounded (spikey = 0) (rounded = 3): 2
[2]; RebM 1000 ppm + yerba mate mono/dicaffeoylquinic acids 1000 ppm (1:1)
  Spikey/rounded (spikey = 0) (rounded = 3): 2
[2]; RebM 1100 ppm + yerba mate mono/dicaffeoylquinic acids 1100 ppm (1:1)
  Spikey/rounded (spikey = 0) (rounded = 3): 2
[2]; RebM 1200 ppm + yerba mate mono/dicaffeoylquinic acids 1200 ppm (1:1)
  Spikey/rounded (spikey = 0) (rounded = 3): 2
[2]; RebM 1300 ppm + yerba mate mono/dicaffeoylquinic acids 1300 ppm (1:1)
  Spikey/rounded (spikey = 0) (rounded = 3): 2
[2]; RebM 1400 ppm + yerba mate mono/dicaffeoylquinic acids 1400 ppm (1:1)
  Spikey/rounded (spikey = 0) (rounded = 3): 2
[2]; RebM 1500 ppm + yerba mate mono/dicaffeoylquinic acids 1500 ppm (1:1)
  Spikey/rounded (spikey = 0) (rounded = 3): 2
[2]; RebM 1600 ppm + yerba mate mono/dicaffeoylquinic acids 1600 ppm (1:1)
  Spikey/rounded (spikey = 0) (rounded = 3): 2
[2]; RebM solution with 300 ppm sensory modifier
  rounded quality: 3
[2]; [13]
  Spikey/rounded (spikey = 0) (rounded = 3): 2
[2]; [14]
  Spikey/rounded (spikey = 0) (rounded = 3): 2
[2]; [15]
  Spikey/rounded (spikey = 0) (rounded = 3): 3
[2]; [16]
  Spikey/rounded (spikey = 0) (rounded = 3): 3
[2]; [17]
  Spikey/rounded (spikey = 0) (rounded = 3): 3
[2]; [18]
  Spikey/rounded (spikey = 0) (rounded = 3): 2
[2]; [19]
  Spikey/rounded (spikey = 0) (rounded = 3): 3
[2]; [20]
  Spikey/rounded (spikey = 0) (rounded = 3): 3
[2]; [21]
  Spikey/rounded (spikey = 0) (rounded = 3): 3
[2]; [6]
  Spikey/rounded (spikey = 0) (rounded = 3): 0
